A short description of series [1]: Binding affinity to Fe3+ assessed as pFe by UV-Vis spectrophotometric method.
Series [2] has as its target Amyloid-beta precursor protein (Homo sapiens, UniProt P05067). Briefly: Inhibition of self-induced amyloid beta (1 to 42) (unknown origin) aggregation measured after 24 hrs by ThT fluorescence assay relative to control. The note with it: concentration not given here.
Series [3] is described as follows: Antioxidant activity assessed as DPPH radical scavenging activity incubated for 30 mins by absorbance method. The format is functional. Background: The DPPH test is a chemical assay of radical scavenging.
Series [4] concerns the target T1, Acetylcholinesterase (Electrophorus electricus, UniProt O42275). Kind of series: Inhibition of electric eel AChE using acetylthiocholine iodide as substrate preincubated for 15 mins followed by substrate addition and measured for 5 mins by Ellman's reagent based UV-Vis spectrophotometric method. Background: Ellman's reagent forms a yellow product with free thiols.

A short description of series [5]: Binding affinity to iron assessed as pFe3+ at pH 7.4 by spectrophotometric method.
The test system of series [6] is Rattus norvegicus. Briefly: Iron scavenging activity in 59Fe-ferritin-loaded rat assessed as iron mobilization efficacy at 450 umol/kg, po dosed 1 hr after 59Fe-ferritin injection and measured 24 hrs after 59Fe-ferritin injection by gamma counting method relative to control. The series is classed as functional. As to conditions: dose 450 µmol/kg; time 23 hrs.
A short description of series [7]: Binding affinity to iron assessed as pFe3+ at pH 7.45.
Series [8] can be described thus: Binding affinity to iron assessed as pFe3+.
Series [9] addresses T1, Acetylcholinesterase. Briefly: Inhibition of electric eel AChE using acetylthiocholine iodide as substrate preincubated for 15 mins followed by substrate addition and measured for 5 mins by Ellman's method.
The test system of the next series is Pseudomonas aeruginosa. Kind of series: Antibacterial activity against Pseudomonas aeruginosa incubated for 2 hrs followed by sterilized TSB addition and measured after 24 hrs by visual inspection. The format is functional. The note with it: time 26 hrs.
For series [10], the system named is Human immunodeficiency virus 1. Briefly: Antiviral activity against HIV1 BaL infected in human peripheral blood lymphocytes assessed as reduction in p24 production incubated for 5 days by ELISA. The note with it: Human immunodeficiency virus 1, BaL, PBL, 120 h. The format is functional, organism-based. (In general: An ELISA detects its analyte on a solid surface through an enzyme-linked reagent.)

The test system of series [11] is Rattus norvegicus. Briefly: Iron scavenging activity in 59Fe-ferritin-loaded Wistar rat assessed as iron mobilization efficacy at 450 umol/kg, po dosed 1 hr after 59Fe-ferritin injection and measured 24 hrs after 59Fe-ferritin injection by gamma counting method relative to control. The series is classed as functional. As to conditions: dose 450 µmol/kg.
Series [12] can be described thus: Binding affinity to iron assessed as pFe3+ at pH 7.4.
Series [13] can be described thus: Electrochemical behavior of the compound assessed as redox potential. The format is physicochemical.
Series [14] in a line: Octanol/water partition coefficient, log P of the compound shaken for 45 mins and measured after 15 mins. The series is classed as physicochemical. The note with it: time 60 min.

≈ marks a conversion by molar mass, not a printed value.

T1 sequence (O42275 whole entry): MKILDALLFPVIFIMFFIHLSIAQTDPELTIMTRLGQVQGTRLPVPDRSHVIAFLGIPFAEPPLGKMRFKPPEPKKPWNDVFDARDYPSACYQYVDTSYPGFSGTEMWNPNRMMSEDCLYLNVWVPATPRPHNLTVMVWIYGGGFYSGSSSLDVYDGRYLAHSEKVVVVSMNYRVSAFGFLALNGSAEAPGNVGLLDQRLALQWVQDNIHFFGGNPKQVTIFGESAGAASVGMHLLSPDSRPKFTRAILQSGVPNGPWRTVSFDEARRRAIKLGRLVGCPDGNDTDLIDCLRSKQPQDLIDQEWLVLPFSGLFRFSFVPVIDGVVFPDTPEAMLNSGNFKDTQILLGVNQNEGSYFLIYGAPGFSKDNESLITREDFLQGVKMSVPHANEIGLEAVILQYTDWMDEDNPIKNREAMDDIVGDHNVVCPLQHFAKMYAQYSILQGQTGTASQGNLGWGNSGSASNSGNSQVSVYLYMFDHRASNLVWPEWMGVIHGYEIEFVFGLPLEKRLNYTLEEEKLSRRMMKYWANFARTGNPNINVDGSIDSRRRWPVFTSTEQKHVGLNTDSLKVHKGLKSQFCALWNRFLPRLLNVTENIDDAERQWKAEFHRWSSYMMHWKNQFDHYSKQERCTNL
Sequence of Amyloid-beta precursor protein (P05067 whole entry): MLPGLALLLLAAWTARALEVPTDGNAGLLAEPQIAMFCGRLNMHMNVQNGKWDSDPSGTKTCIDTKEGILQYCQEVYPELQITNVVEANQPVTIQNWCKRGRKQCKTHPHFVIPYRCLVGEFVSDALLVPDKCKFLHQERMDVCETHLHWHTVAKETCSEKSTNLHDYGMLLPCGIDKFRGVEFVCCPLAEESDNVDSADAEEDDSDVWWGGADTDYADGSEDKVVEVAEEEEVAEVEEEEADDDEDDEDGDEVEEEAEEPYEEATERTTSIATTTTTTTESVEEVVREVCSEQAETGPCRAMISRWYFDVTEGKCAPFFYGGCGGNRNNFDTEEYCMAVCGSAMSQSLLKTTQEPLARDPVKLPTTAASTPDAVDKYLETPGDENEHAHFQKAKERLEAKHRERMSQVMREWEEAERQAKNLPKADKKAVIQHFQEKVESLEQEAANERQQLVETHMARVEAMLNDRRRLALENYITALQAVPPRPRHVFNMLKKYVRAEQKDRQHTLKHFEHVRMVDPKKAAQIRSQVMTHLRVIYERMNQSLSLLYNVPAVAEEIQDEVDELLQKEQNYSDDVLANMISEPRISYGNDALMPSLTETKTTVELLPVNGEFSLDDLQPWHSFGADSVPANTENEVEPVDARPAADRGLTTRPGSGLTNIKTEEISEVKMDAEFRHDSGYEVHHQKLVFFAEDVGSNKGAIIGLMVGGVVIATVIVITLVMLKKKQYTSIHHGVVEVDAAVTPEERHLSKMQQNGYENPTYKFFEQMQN

Take `CCc1c(O)c(=O)ccn1CCCn1cc(COc2cc3ccccc3oc2=O)nn1`: the Activity in series [1] is 17.1.
As a reminder, the inhibition is the change of the read-out against control, counted positive when it falls. A higher inhibition goes with a response far below the control. Usually IC50 stands for the point on the concentration scale where inhibition reaches its midpoint. `Cc1c(O)c(=O)ccn1CCCC(=O)N1CCCC1c1nc2ccccc2s1` (configuration not stated): in series [2], the inhibition turned out to be 59.3%. The values for the IC50 (in series [3]; at Acetylcholinesterase [4]) were 148 µM and 14.7 µM, respectively. The Activity in [5] was determined as 19.2.
For `CCC(O)c1c(O)c(=O)cc(C)n1C` (configuration not stated), the Efficacy with Rattus norvegicus [6] was 60.4%. Further, the Activity in series [7] came to 21.
For `O=c1cc(CO)[nH]cc1O`, the Activity in series [8] was found to be 22.
The compound `Cc1c(O)c(=O)ccn1CC(=O)NCCNc1c2c(nc3cc(Cl)ccc13)CCCC2` gave an IC50 against Acetylcholinesterase [9] of 0.64 µM.
Take `CC(=O)N(C)O`: in [8], the Activity came out at 13.
In turn, `Cc1c(O)c(=O)ccn1CC(=O)NCCCNc1c2c(nc3ccccc13)CCCC2` registered an IC50 at Acetylcholinesterase [9] of 0.64 µM.
`CCn1ccc(=O)c(O)c1C(C)O` (configuration not stated): in the series on Rattus norvegicus [6], the Efficacy came to 54.5%. For the same compound, the Activity in [7] was 21.4.
Turning to `Cc1c(O)c(=O)ccn1CCCC(=O)NCc1ccc(Cc2nc3ccccc3s2)cc1`, the Activity in series [5] stood at 19.4.
In general, MIC refers to the least concentration at which growth counts as inhibited. In the series with Pseudomonas aeruginosa, `CCCC(=O)NC(CCCNC(=O)c1c(O)c(=O)ccn1CC)(CCCNC(=O)c1c(O)c(=O)ccn1CC)CCCNC(=O)c1c(O)c(=O)ccn1CC` registered an MIC of 32 µg/mL (≈ 41.7 µM).
`CNC(=O)c1[nH]c(C)cc(=O)c1O`: the IC50 in series [10] was 20 µM. In addition, the Efficacy in the series on Rattus norvegicus [11] came out at 50.1%. Moreover, the Activity in [12] is 22.8.
Consider `Cc1cc(=O)c(O)c(CO)n1CCCn1cc(COc2ccc3ccc(=O)oc3c2)nn1`, for which, in series [1], the Activity came out at 19.8.
On to `CC(=O)N(O)CCCCCNC(=O)CCC(=O)N(O)CCCCCNC(=O)CCC(=O)N(O)CCCCCN` [DEFEROXAMINE], for which the Activity in series [8] is 26.6; in [13] it was -468 mV.
As for `CCCCCCn1ccc(=O)c(O)c1C(=O)NCCCC(CCCNC(=O)c1c(O)c(=O)ccn1CCCCCC)(CCCNC(=O)c1c(O)c(=O)ccn1CCCCCC)NC(=O)CCC`, the lowest concentration to inhibit growth against Pseudomonas aeruginosa (MIC) was 32 µg/mL (≈ 34.2 µM).
For `CCCCn1ccc(=O)c(O)c1C(=O)NCCCC(CCCNC(=O)c1c(O)c(=O)ccn1CCCC)(CCCNC(=O)c1c(O)c(=O)ccn1CCCC)NC(=O)[C@@H](N)CC(C)C`, in the series with Pseudomonas aeruginosa, the MIC stood at 32 µg/mL (≈ 35.7 µM).
For `CNC(=O)c1c(O)c(=O)cc(C)n1C`, the IC50 in [10] turned out to be 33.3 µM. Besides, the Efficacy in the series with Rattus norvegicus [11] is 58.7%. Moreover, the Activity in series [12] worked out at 21.7.
`COCCn1ccc(=O)c(O)c1C(=O)NCCCC(CCCNC(=O)c1c(O)c(=O)ccn1CCOC)(CCCNC(=O)c1c(O)c(=O)ccn1CCOC)NC(=O)[C@@H](N)CC(C)C` returned an MIC against Pseudomonas aeruginosa of 128 µg/mL (≈ 142 µM).
For `CN(C)C(=O)c1cccc(O)c1O`, the Activity in series [8] was found to be 15.
Consider `CCn1ccc(=O)c(O)c1C(=O)NCCCC(CCCNC(=O)c1c(O)c(=O)ccn1CC)(CCCNC(=O)c1c(O)c(=O)ccn1CC)NC(=O)[C@@H](N)CC(C)C`, for which, in the series on Pseudomonas aeruginosa, the minimal inhibitory concentration (MIC) was found to be 32 µg/mL (≈ 39.5 µM).
Same read-out and setting: with `CCCCn1ccc(=O)c(O)c1C(=O)NCCCC(CCCNC(=O)c1c(O)c(=O)ccn1CCCC)(CCCNC(=O)c1c(O)c(=O)ccn1CCCC)NC(=O)CCC` the figure was 32 µg/mL (≈ 37.6 µM).
`Cc1c(O)c(=O)ccn1CC(=O)NCC(O)CNc1c2c(nc3cc(Cl)ccc13)CCCC2` (configuration not stated) came in with an IC50 against Acetylcholinesterase [9] of 0.64 µM.
On the same count and under the same terms, with `Cc1c(O)c(=O)ccn1CC(=O)NCCCCNc1c2c(nc3cc(Cl)ccc13)CCCC2` the figure was 0.64 µM.
The compound `Cc1c(OCc2ccccc2)c(=O)ccn1-c1ccc(CC(=O)NCc2ccc(-c3nc4ccccc4s3)cc2)cc1` gave an inhibition in series [2] of 68.9%. For the same compound, the 50% inhibitory concentration (IC50) in [3] is greater than 1000 µM; against Acetylcholinesterase [4], 13.8 µM.
For the compound `Oc1cccc2cccnc12` [OXYQUINOLINE], the Activity in series [13] is given as -150 mV.
With `CCCC(=O)NC(CCCNC(=O)c1c(O)c(=O)ccn1CCOC)(CCCNC(=O)c1c(O)c(=O)ccn1CCOC)CCCNC(=O)c1c(O)c(=O)ccn1CCOC`, the minimum inhibitory concentration (MIC) with Pseudomonas aeruginosa turned out to be 32 µg/mL (≈ 37.3 µM).
As a reminder, the logP is the decadic logarithm of the partition coefficient of the neutral form, usually between octanol and water. Read a low logP as a more hydrophilic compound. In the case of `Cc1c(O)c(=O)ccn1C` [DEFERIPRONE], the Activity in series [8] was 20.4; in series [13] it was -620 mV. In series [14], the logP at 1 h came to 0.17. In addition, the IC50 in series [10] is 102 µM. Also, the Efficacy with Rattus norvegicus [11] is given as 13.4%.

These data come from ChEMBL document CHEMBL4706610, “Hydroxypyridinone-Based Iron Chelators with Broad-Ranging Biological Activities” (J Med Chem, 2020).
